Measurements reported in patent publication US20110251135A1, “INHIBITORS OF PERITONEAL SEEDING OF CANCER CELLS” (University of Utah Research Foundation, priority 2008, published 2011).
Entries after “also recorded” stand apart in the source; their conditions may differ.

Assays:
[1] = tested on: DLD-1, HCT-116, HT-29 colon cancer cell lines; assay: Cell proliferation assay (crystal violet, 96-well); assay type: cell-based, human; conditions: 10 μM, cultured up to 8 days
Procedure: (§1) The data points represent the means of triplicate experiments and the error bars the standard errors of the means. […] The percent of apoptotic cells was then determined by the annexin V assay. […] The results shown are typical of two separate experiments. […] Immunoblots were performed for c-IAP-2, TRAF-1, TRAF-2, and FLIP. All lanes contain equal total protein.
For the cell proliferation assay, cells were dispersed and plated at 40,000 cells/well in 96-well dishes. At various days in culture, the cells were gently washed twice with 100 μL/well of ice-cold blocking buffer (1% radioimmunoassay grade BSA in PBS) and twice with 100 μL/well of ice-cold PBS. The cells were fixed for 10 min in 100% ice-cold methanol (100 μL/well), then allowed to air-dry. The cells were stained with 100 μL/well of 0.1% crystal violet in H20 for 10 minutes, then washed gently four times with dd H20 and four times with PBS. The plates were then air-dried completely. The stained cells were then solubilized in 1% sodium deoxycholate, and the plates read at 590 nm in a spectrophotometer. The absorption at 590 nm is proportional to the number of attached cells.

[2] = tested on: transiently suspended Caco-2 cells; assay: Apoptosis of transiently suspended cells during readhesion (annexin V assay); assay type: cell-based, human; conditions: Caco-2 transiently suspended, treated and allowed to readhere
Procedure: (§2) Single cell suspensions were plated at 100,000 cells per well in 24-well plates in media containing DMSO, BAY 11-7082, BAY 11-7085, or MG-132 for 8-24 hours in an incubator. Alternatively, DMSO, BAY 11-7082, BAY 11-7085, or MG-132 were added to cells that were confluent and adherent for several days. The nonadherent cells were aspirated off with the media and spun for 3 minutes at 2,000 rpm in 15 mL polypropylene tubes. The adherent cells were washed twice with PBS, dispersed in trypsin, and spun down for 3 minutes at 2,000 rpm in 15 mL polypropylene tubes. […] 400 μL of binding buffer was added to each tube and the cells were analyzed by flow cytometry immediately. The percent of apoptosis was determined as the percent of annexin V-positive, propidium iodide-negative cells of the total cells counted.
Since trypsin can activate protease-activated receptor-2 in colon cancer cell lines, which then results in increased cell proliferation, (Darmoul et al., “Initiation of human colon cancer cell proliferation by trypsin acting at protease-activated receptor-2,” Br J Cancer 85:772-9, 2001). NF-κB activation was determined in adherent and confluent DLD-1, HCT-116, Caco-2 and HT-29 cells that were removed from plastic dishes by trypsin or scraping.

[3] = tested on: IκB phosphorylation and TNFα-induced NF-κB activation; conditions: Pierce et al., J Biol Chem 272:21096-103, 1997; cited from earlier work
adherent HT-29 cells = assay: Annexin V-FITC apoptosis assay, adherent cells; assay type: cell-based, human
From the text: FIG. 3 is a group of graphs that show NF-κB inhibitors cause apoptosis of colon cancer cells. […] The data points represent the average percent of annexin V-positive, propidium iodide-negative cells (of the total cells counted) from triplicate experiments. The error bars represent the standard error of the means. […] The results shown are a graphic representation of individual flow cytometry results expressed as the percentage of cells that were annexin V-positive of those that excluded propidium iodide. […] An immunoblot of the lysates for cleaved PARP was performed. Each lane represents equal total protein concentrations. […] The cells were allowed to adhere to plastic dishes for 1 hour after which they were washed gently in PBS and stained with crystal violet. The crystal violet stained cells were solubilized in deoxycholate and the absorbance detected in a spectrophotometer at 590 nm. The adherent cells were expressed as a fraction of the controls. Each data point represents the average of triplicate experiments and the error bars the standard errors of the means.
as §1
Single cell suspensions were plated at 100,000 cells per well in 24-well plates in media containing DMSO, BAY 11-7082, BAY 11-7085, or MG-132 for 8-24 hours in an incubator. Alternatively, DMSO, BAY 11-7082, BAY 11-7085, or MG-132 were added to cells that were confluent and adherent for several days. The nonadherent cells were aspirated off with the media and spun for 3 minutes at 2,000 rpm in 15 mL polypropylene tubes. The adherent cells were washed twice with PBS, dispersed in trypsin, and spun down for 3 minutes at 2,000 rpm in 15 mL polypropylene tubes. The nonadherent and adherent cells were resuspended in 1× binding buffer (10 mM HEPES/NaOH, pH 7.4, 140 mM NaCl, and 2.5 mM CaCl2) to a final concentration of 10^6 cells/mL. 100 μL of the cell solution were transferred to a 5 mL culture tube and incubated with 5 μL of annexin V-FITC-conjugated monoclonal antibody (Pharmingen) and 10 μl, of propidium iodide (from a 50 μg/mL stock solution made in PBS) in the dark at 25° C. for 15 minutes. 400 μL of binding buffer was added to each tube and the cells were analyzed by flow cytometry immediately. The percent of apoptosis was determined as the percent of annexin V-positive, propidium iodide-negative cells of the total cells counted.

DLD-1 cells = assay: Soft agar colony formation assay; assay type: cell-based, human; conditions: 10 μM for 6 days
Procedure: (§3) DLD-1, HCT-116, and HT-29 cells were cultured for 6 days in soft agar in the presence of DMSO (control), 10 μM BAY 11-7082, or 10 μM BAY 11-7085. The data points represent the means of colony counts per field (20×) performed in 5 different regions of the culture dishes. The data shown represent a typical result of two separate experiments. FIG. 2B and FIG. 2C are graphs that show athymic mice received subcutaneous injections of HT-29 (FIG. B) or HCT-116 (FIG. C) cells, followed by […] of BAY 11-7085 (dark bars) or DMSO (white bars) intraperitoneally twice weekly. The bars represent the 25-75% ranges of the tumor volumes and the horizontal lines in the bars are the medians. Using the Kruskal-Wallace statistical test to compare the median tumor volumes between BAY 11-7085 and DMSO yielded a p-value of 0.005 for HT-29 cells but >0.05 for HCT-116 cells.
(§4) Anchorage-independent cell growth is a hallmark of cancer cells and is a good correlation to tumorigencity in vivo. Therefore, the effects of BAY 11-7082 and BAY 11-7085 were examined on colon cancer cell growth using the soft agar colony formation assay.

HT-29 cells = assay: Soft agar colony formation assay; assay type: cell-based, human; conditions: 10 μM for 6 days
Procedure: as §3, §4

[4] = tested on: transiently suspended DLD-1 cells; assay: Apoptosis of transiently suspended cells during readhesion (annexin V assay); assay type: cell-based, human; conditions: DLD-1 transiently suspended, treated and allowed to readhere; 8 hours
Procedure: (§5) The transiently suspended cells were lysed and allowed to bind to DNA oligonucleotides, containing the NF-κB consensus binding site, that were immobilized to 96-well plates. NF-κB protein bound to the oligonucleotides was detected by an antibody to the p65 subunit that only recognized p65 that is bound to DNA. The positive control was HeLa cells that were stimulated with TNFα. A control was performed using excess free NF-κB oligonucleotides (Competitor). […] NF-κB binding activity was determined by the TransAM assay as in FIG. 5A. […] The data shown represent typical results of three separate experiments. […] An immunoblot for COX-2 was performed.
as §2, with “tubes.” for “tubes. The adherent cells were washed twice with PBS, dispersed in trypsin, and spun down for 3 minutes at 2,000 rpm in 15 mL polypropylene tubes.”, “counted. […]” for “counted.”

[5] = tested on: transiently suspended HCT-116 cells; assay: as above; assay type: cell-based, human; conditions: HCT-116 transiently suspended, treated and allowed to readhere; 8 hours
Procedure: as §5
as §2, with “tubes.” for “tubes. The adherent cells were washed twice with PBS, dispersed in trypsin, and spun down for 3 minutes at 2,000 rpm in 15 mL polypropylene tubes.”, “counted. […]” for “counted.”

JNK/SAPK and p38 = conditions: Pierce et al., J Biol Chem 272:21096-103, 1997; cited from earlier work

CC(C)(C)c1ccc(S(=O)(=O)/C=C/C#N)cc1 [BAY 11-7085, (2E)-3-[4-(tertiarybutylphenyl)sulfonyl]-2-propenenitrile]
cell proliferation [1]: greatly inhibited cell proliferation | BAY 11-7085-induced apoptosis during readhesion [2]: moderate increase | IκB phosphorylation and TNFα-induced NF-κB activation [3]: inhibit IκB phosphorylation and TNFα-induced NF-κB activation | apoptotic cells among cells that remained adherent (adherent HT-29 cells; HT-29 treated with increasing concentrations of BAY 11-7085, adherent fraction): only a minority of the adherent cells was apoptotic | apoptotic cells among cells that became nonadherent (adherent HT-29 cells; HT-29 treated with increasing concentrations of BAY 11-7085, nonadherent fraction): the majority of nonadherent cells were apoptotic; also recorded: predominantly apoptotic | level of apoptosis (annexin V-positive, propidium iodide-negative cells) (adherent HT-29 cells; adherent HT-29, 24 hours, BAY compounds at doses up to 20, MG-132 20 μM): relatively greater for MG-132 than BAY 11-7085; also recorded: caused an increase in the level of apoptosis | apoptosis of adherent HT-29 cell monolayers (adherent HT-29 cells; even the highest doses (10-100 μM), compared with transiently suspended cells): only a relatively small degree of apoptosis | anchorage-independent proliferation (DLD-1 cells): significantly inhibited | anchorage-independent proliferation (HT-29 cells): significantly inhibited | BAY 11-7085-induced apoptosis during readhesion [4]: showed the same propensity for BAY 11-7085-induced apoptosis | BAY 11-7085-induced apoptosis during readhesion [5]: HCT-116 cells did not | activation of JNK/SAPK and p38 (JNK/SAPK and p38): activate JNK/SAPK and p38
